# The source made the active and inactive calls. No cut-off for these calls is given here.
# Tests used:
# Mus musculus [1] = assay: Neurotoxicity in ip dosed albino CF1 mouse assessed as minimum dose required to cause toxicity after 0.5 hrs by rotarod test; type: organism-based; conditions: in vivo
# Mus musculus [2] = assay: Anticonvulsant activity in albino CF1 mouse assessed as protection against subcutaneous metrazole-induced seizures at 150 mg/kg, ip after 1 hr; type: functional, organism-based; parameters: dose 150 mg/kg
# Mus musculus [3] = assay: Neurotoxicity in albino CF1 mouse assessed as minimal motor impairment at 30 mg/kg, ip after 0.5 hrs by rotarod test; type: toxicity, organism-based; parameters: dose 30 mg/kg, route intraperitoneal; conditions: in vivo
# Mus musculus [4] = assay: Anticonvulsant activity in albino CF1 mouse assessed as protection against maximal electroshock-induced seizures at 100 mg/kg, ip after 0.5 hrs; type: functional, organism-based; parameters: dose 100 mg/kg
# Mus musculus [5] = assay: Anticonvulsant activity against subcutaneous metrazole-induced seizures in ip dosed albino CF1 mouse assessed as minimum effective dose after 4 hrs; type: functional; conditions: albino CF1, 4 h, read-out: MED
# Mus musculus [6] = assay: Anticonvulsant activity in albino CF1 mouse assessed as protection against subcutaneous metrazole-induced seizures at 300 mg/kg, ip after 1 hr; type: functional, organism-based; parameters: dose 300 mg/kg
# Mus musculus [7] = assay: Neurotoxicity in albino CF1 mouse assessed as minimal motor impairment at 140 mg/kg, ip after 1 hr by rotarod test; type: toxicity, organism-based; parameters: dose 140 mg/kg, route intraperitoneal; conditions: in vivo
# Mus musculus [8] = assay: Anticonvulsant activity ip dosed albino CF1 mouse assessed as protection against maximal electroshock-induced seizures after 1 hr; type: functional
# Mus musculus [9] = species on record: Mus musculus; assay: Protective index, ratio of TD50 for albino CF1 mouse after 1 hr by rotarod test to ED50 for albino CF1 mouse by maximal electroshock seizures test after 1 hr; type: functional
# Mus musculus [10] = assay: Anticonvulsant activity in albino CF1 mouse assessed as protection against maximal electroshock-induced seizures at 60 mg/kg, ip after 1 hr; type: functional, organism-based; parameters: dose 60 mg/kg
# [11] = Neurotoxicity in ip dosed albino CF1 mouse assessed as minimal motor impairment after 1 hr by rotarod test; type: toxicity, organism-based; conditions: in vivo
# Mus musculus [12] = assay: Anticonvulsant activity in albino CF1 mouse assessed as protection against subcutaneous metrazole-induced seizures at 75 mg/kg, ip after 1 hr; type: functional, organism-based; parameters: dose 75 mg/kg
# [13] = biological target: Sodium channel protein type 2 subunit alpha (Homo sapiens, UniProt Q99250); assay: Inhibition of human NaV1.2 expressed in HEK cells at -60 mV holding potential by patch clamp recording technique; type: cell-based, HEK293
# Sodium channel protein type 2 subunit alpha, sequence (Q99250 whole entry): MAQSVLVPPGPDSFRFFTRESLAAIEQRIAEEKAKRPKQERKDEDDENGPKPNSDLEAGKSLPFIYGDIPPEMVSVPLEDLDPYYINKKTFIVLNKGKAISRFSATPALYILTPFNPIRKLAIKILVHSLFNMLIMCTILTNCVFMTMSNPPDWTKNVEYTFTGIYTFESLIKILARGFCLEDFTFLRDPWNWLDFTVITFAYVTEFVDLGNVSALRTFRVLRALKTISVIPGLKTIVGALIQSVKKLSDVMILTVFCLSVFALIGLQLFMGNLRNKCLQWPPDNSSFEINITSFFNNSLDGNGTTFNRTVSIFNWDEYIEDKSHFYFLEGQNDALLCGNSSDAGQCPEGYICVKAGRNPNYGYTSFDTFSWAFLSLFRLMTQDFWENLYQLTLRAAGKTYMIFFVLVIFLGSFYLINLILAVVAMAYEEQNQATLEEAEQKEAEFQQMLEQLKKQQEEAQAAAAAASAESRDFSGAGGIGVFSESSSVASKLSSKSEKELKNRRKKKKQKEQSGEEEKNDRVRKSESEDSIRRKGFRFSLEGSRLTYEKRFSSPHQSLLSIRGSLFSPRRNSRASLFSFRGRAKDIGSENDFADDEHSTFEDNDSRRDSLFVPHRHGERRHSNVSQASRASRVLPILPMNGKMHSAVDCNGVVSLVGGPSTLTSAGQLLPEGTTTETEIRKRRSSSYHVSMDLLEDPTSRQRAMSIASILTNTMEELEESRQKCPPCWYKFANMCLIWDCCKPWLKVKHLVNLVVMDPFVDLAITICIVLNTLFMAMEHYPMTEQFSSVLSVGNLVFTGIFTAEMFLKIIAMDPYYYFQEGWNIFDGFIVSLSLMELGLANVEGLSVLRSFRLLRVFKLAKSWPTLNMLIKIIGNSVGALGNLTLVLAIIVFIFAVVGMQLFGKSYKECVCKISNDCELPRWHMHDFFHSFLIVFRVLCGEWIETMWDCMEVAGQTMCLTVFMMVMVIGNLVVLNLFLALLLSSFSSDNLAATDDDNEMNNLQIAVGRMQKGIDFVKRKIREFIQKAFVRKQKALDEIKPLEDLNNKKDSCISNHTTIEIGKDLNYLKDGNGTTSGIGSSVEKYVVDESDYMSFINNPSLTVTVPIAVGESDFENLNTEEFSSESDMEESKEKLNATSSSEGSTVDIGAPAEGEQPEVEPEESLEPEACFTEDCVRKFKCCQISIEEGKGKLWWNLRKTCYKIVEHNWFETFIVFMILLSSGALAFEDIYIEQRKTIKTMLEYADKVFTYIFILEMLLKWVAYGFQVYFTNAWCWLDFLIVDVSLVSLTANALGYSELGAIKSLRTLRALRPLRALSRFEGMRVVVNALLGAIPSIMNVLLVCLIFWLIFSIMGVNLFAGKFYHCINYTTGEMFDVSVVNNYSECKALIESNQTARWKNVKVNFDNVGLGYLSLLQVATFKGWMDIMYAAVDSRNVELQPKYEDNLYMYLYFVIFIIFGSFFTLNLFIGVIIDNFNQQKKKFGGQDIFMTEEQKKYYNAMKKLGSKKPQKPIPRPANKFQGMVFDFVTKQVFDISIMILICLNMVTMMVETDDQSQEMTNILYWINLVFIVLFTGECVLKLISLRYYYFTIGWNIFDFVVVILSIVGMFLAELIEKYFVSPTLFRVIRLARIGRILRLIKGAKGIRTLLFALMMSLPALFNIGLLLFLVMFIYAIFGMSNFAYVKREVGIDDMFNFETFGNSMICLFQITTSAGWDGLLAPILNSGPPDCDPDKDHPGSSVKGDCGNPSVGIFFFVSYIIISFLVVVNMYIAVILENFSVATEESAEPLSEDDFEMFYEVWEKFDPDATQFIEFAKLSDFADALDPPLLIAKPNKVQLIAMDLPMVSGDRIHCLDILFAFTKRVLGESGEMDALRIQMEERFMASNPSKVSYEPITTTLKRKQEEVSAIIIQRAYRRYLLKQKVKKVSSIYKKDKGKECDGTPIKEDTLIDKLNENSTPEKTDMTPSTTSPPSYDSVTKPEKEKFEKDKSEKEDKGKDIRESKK
# Mus musculus [14] = species on record: Mus musculus; assay: Protective index, ratio of TD50 for albino CF1 mouse by rotarod test to ED50 for albino CF1 mouse by maximal electroshock seizures test; type: functional
# Rattus norvegicus [15] = assay: Neurotoxicity in albino Sprague-Dawley rat assessed as minimal motor impairment at 30 mg/kg, po by rotarod test; type: toxicity, organism-based; parameters: dose 30 mg/kg, route oral; conditions: in vivo
# Mus musculus [16] = assay: Anticonvulsant activity ip dosed albino CF1 mouse assessed as protection against maximal electroshock-induced seizures after 0.25 hrs; type: functional
# Rattus norvegicus [17] = assay: Anticonvulsant activity in albino Sprague-Dawley rat assessed as protection against maximal electroshock-induced seizures at 30 mg/kg, po after 0.25 hrs; type: functional, organism-based; parameters: dose 30 mg/kg
# Rattus norvegicus [18] = assay: Anticonvulsant activity in albino Sprague-Dawley rat assessed as protection against maximal electroshock-induced seizures at 30 mg/kg, po after 0.5 hrs; type: functional, organism-based; parameters: dose 30 mg/kg
# Rattus norvegicus [19] = assay: Anticonvulsant activity in albino Sprague-Dawley rat assessed as protection against maximal electroshock-induced seizures at 30 mg/kg, po after 1 hr; type: functional, organism-based; parameters: dose 30 mg/kg
# Rattus norvegicus [20] = assay: Anticonvulsant activity in albino Sprague-Dawley rat assessed as protection against maximal electroshock-induced seizures at 30 mg/kg, po after 2 hrs; type: functional, organism-based; parameters: dose 30 mg/kg
# Rattus norvegicus [21] = assay: Anticonvulsant activity in albino Sprague-Dawley rat assessed as protection against maximal electroshock-induced seizures at 30 mg/kg, po after 4 hrs; type: functional, organism-based; parameters: dose 30 mg/kg
# Mus musculus [22] = assay: Neurotoxicity in albino CF1 mouse assessed as minimal motor impairment at 30 mg/kg, ip after 4 hrs by rotarod test; type: toxicity, organism-based; parameters: dose 30 mg/kg, route intraperitoneal; conditions: in vivo
# Mus musculus [23] = assay: Neurotoxicity in albino CF1 mouse assessed as minimal motor impairment at 100 mg/kg, ip after 0.5 hrs by rotarod test; type: toxicity, organism-based; parameters: dose 100 mg/kg, route intraperitoneal; conditions: in vivo
# Mus musculus [24] = assay: Neurotoxicity in albino CF1 mouse assessed as minimal motor impairment at 100 mg/kg, ip after 4 hrs by rotarod test; type: toxicity, organism-based; parameters: dose 100 mg/kg, route intraperitoneal; conditions: in vivo
# Mus musculus [25] = assay: Neurotoxicity in albino CF1 mouse assessed as minimal motor impairment at 300 mg/kg, ip after 0.5 hrs by rotarod test; type: toxicity, organism-based; parameters: dose 300 mg/kg, route intraperitoneal; conditions: in vivo
# Mus musculus [26] = assay: Neurotoxicity in albino CF1 mouse assessed as minimal motor impairment at 300 mg/kg, ip after 4 hrs by rotarod test; type: toxicity, organism-based; parameters: dose 300 mg/kg, route intraperitoneal; conditions: in vivo
# Mus musculus [27] = assay: Anticonvulsant activity in albino CF1 mouse assessed as protection against maximal electroshock-induced seizures at 100 mg/kg, ip after 2 hrs; type: functional, organism-based; parameters: dose 100 mg/kg
# Mus musculus [28] = assay: Neurotoxicity in albino CF1 mouse assessed as minimal motor impairment at 100 mg/kg, ip after 0.25 hrs by rotarod test; type: toxicity, organism-based; parameters: dose 100 mg/kg, route intraperitoneal; conditions: in vivo
# Mus musculus [29] = assay: Neurotoxicity in albino CF1 mouse assessed as minimal motor impairment at 100 mg/kg, ip after 1 hr by rotarod test; type: toxicity, organism-based; parameters: dose 100 mg/kg, route intraperitoneal; conditions: in vivo
# Mus musculus [30] = assay: Neurotoxicity in albino CF1 mouse assessed as minimal motor impairment at 100 mg/kg, ip after 2 hrs by rotarod test; type: toxicity, organism-based; parameters: dose 100 mg/kg, route intraperitoneal; conditions: in vivo
# Mus musculus [31] = assay: Anticonvulsant activity in albino CF1 mouse assessed as protection against maximal electroshock-induced seizures at 100 mg/kg, ip after 4 hrs; type: functional, organism-based; parameters: dose 100 mg/kg
# Mus musculus [32] = assay: Anticonvulsant activity in albino CF1 mouse assessed as protection against maximal electroshock-induced seizures at 300 mg/kg, ip after 0.5 hrs; type: functional, organism-based; parameters: dose 300 mg/kg
# Mus musculus [33] = assay: Anticonvulsant activity in albino CF1 mouse assessed as protection against maximal electroshock-induced seizures at 300 mg/kg, ip after 4 hrs; type: functional, organism-based; parameters: dose 300 mg/kg
# Mus musculus [34] = assay: Anticonvulsant activity in albino CF1 mouse assessed as protection against subcutaneous metrazole-induced seizures at 30 mg/kg, ip after 0.5 hrs; type: functional, organism-based; parameters: dose 30 mg/kg
# Mus musculus [35] = assay: Anticonvulsant activity in albino CF1 mouse assessed as protection against subcutaneous metrazole-induced seizures at 30 mg/kg, ip after 4 hrs; type: functional, organism-based; parameters: dose 30 mg/kg
# Mus musculus [36] = assay: Anticonvulsant activity in albino CF1 mouse assessed as protection against subcutaneous metrazole-induced seizures at 100 mg/kg, ip after 0.5 hrs; type: functional, organism-based; parameters: dose 100 mg/kg
# Mus musculus [37] = assay: Anticonvulsant activity in albino CF1 mouse assessed as protection against subcutaneous metrazole-induced seizures at 100 mg/kg, ip after 4 hrs; type: functional, organism-based; parameters: dose 100 mg/kg
# Mus musculus [38] = assay: Anticonvulsant activity in albino CF1 mouse assessed as protection against subcutaneous metrazole-induced seizures at 300 mg/kg, ip after 0.5 hrs; type: functional, organism-based; parameters: dose 300 mg/kg
# Mus musculus [39] = assay: Anticonvulsant activity in albino CF1 mouse assessed as protection against subcutaneous metrazole-induced seizures at 300 mg/kg, ip after 4 hrs; type: functional, organism-based; parameters: dose 300 mg/kg
# Mus musculus [40] = assay: Neurotoxicity in albino CF1 mouse assessed as minimal motor impairment at 30 to 300 mg/kg, po after 4 hrs by rotarod test; type: toxicity, organism-based; parameters: dose 30-300 mg/kg, route oral; conditions: in vivo
# Mus musculus [41] = assay: Anticonvulsant activity in albino CF1 mouse assessed as protection against maximal electroshock-induced seizures at 30 mg/kg, ip after 0.5 hrs; type: functional, organism-based; parameters: dose 30 mg/kg
# Mus musculus [42] = assay: Anticonvulsant activity in albino CF1 mouse assessed as protection against maximal electroshock-induced seizures at 30 mg/kg, ip after 4 hrs; type: functional, organism-based; parameters: dose 30 mg/kg
# Mus musculus [43] = assay: Neurotoxicity in ip dosed albino CF1 mouse assessed as minimum dose required to cause toxicity after 4 hrs by rotarod test; type: organism-based; conditions: in vivo
# Mus musculus [44] = assay: Anticonvulsant activity against maximal electroshock-induced seizures in ip dosed albino CF1 mouse assessed as minimum effective dose after 0.5 hrs; type: functional; conditions: read-out: MED
# Mus musculus [45] = assay: Anticonvulsant activity against maximal electroshock-induced seizures in ip dosed albino CF1 mouse assessed as minimum effective dose after 4 hrs; type: functional; conditions: read-out: MED
# Mus musculus [46] = assay: Neurotoxicity in albino CF1 mouse assessed as minimal motor impairment at 30 to 300 mg/kg, ip after 0.5 hrs by rotarod test; conditions: in vivo
structure (smiles),measurement,setting,value
FC(F)(F)c1ccc(-c2nc(-c3ccccc3)c[nH]2)cc1,MED,Mus musculus [1],> 300 mg/kg
same,Activity,Mus musculus [2],inactive
same,Activity,Mus musculus [3],Non-toxic
same,Activity,Mus musculus [4],inactive
same,minimal effective dose,Mus musculus [5],> 300 mg/kg
same,Activity,Mus musculus [6],inactive
same,Activity,Mus musculus [7],Non-toxic
same,ED50,Mus musculus [8],130 mg/kg
same,PI,Mus musculus [9],> 3.8
same,Activity,Mus musculus [10],inactive
same,TD50 at 1 h,[11],> 500 mg/kg
same,Activity,Mus musculus [12],inactive
same,IC50,[13],10.1 µM
same,PI,Mus musculus [14],>3.8
same,Activity,Rattus norvegicus [15],Non-toxic
same,ED50,Mus musculus [16],130 mg/kg
same,Activity,Rattus norvegicus [17],inactive
same,Activity,Rattus norvegicus [18],inactive
same,Activity,Rattus norvegicus [19],inactive
same,Activity,Rattus norvegicus [20],inactive
same,Activity,Rattus norvegicus [21],inactive
same,Activity,Mus musculus [22],Non-toxic
same,Activity,Mus musculus [23],Non-toxic
same,Activity,Mus musculus [24],Non-toxic
same,Activity,Mus musculus [25],Non-toxic
same,Activity,Mus musculus [26],Non-toxic
same,Activity,Mus musculus [27],inactive
same,Activity,Mus musculus [28],Non-toxic
same,Activity,Mus musculus [29],Non-toxic
same,Activity,Mus musculus [30],Non-toxic
same,Activity,Mus musculus [31],inactive
same,Activity,Mus musculus [32],Active
same,Activity,Mus musculus [33],Active
same,Activity,Mus musculus [34],inactive
same,Activity,Mus musculus [35],inactive
same,Activity,Mus musculus [36],inactive
same,Activity,Mus musculus [37],inactive
same,Activity,Mus musculus [38],inactive
same,Activity,Mus musculus [39],inactive
same,Activity,Mus musculus [40],Non-toxic
same,Activity,Mus musculus [41],inactive
same,Activity,Mus musculus [42],inactive
same,MED,Mus musculus [43],> 300 mg/kg
same,minimal effective dose,Mus musculus [44],100 mg/kg
same,minimal effective dose,Mus musculus [45],100 mg/kg
same,Activity,Mus musculus [46],Non-toxic
